Patent publication US20090299049A1, “Bicyclic Compounds and Their Use” (priority 2006, published 2009)

Legend:
[1] = Optical properties: UV-visible spectra, fluorescence excitation and emission; assay type: physicochemical; conditions: for Stokes shift: (1/λex − 1 λem); for Absorption maxima shift relative to compound 7a (parent): compared with the guanosine series; for λem: fluorescence emission wavelength; for λex: fluorescence excitation wavelength; for HOMO-LUMO gap relative to compound 5a: inferred from UV-visible spectrum
Source text: The optical properties of several novel chromophores were investigated. UV-visible spectra reveal an intense absorption in the UV region for all the compounds evaluated.

[2] = UV absorbance and fluorescence of ribonucleoside analogues in DMSO (molar extinction coefficient, quantum yield); assay type: physicochemical; conditions: for Quantum yield: relative to quinine sulphate and anthracene standards
Source text: UV absorbance and fluorescence excitation and emission data were used to determine the molar extinction coefficient and fluorescence quantum yield of a several adenosine and guanosine ribonucleoside analogues in DMSO (see the Table below). The data acquired support the concept that the fluorescence properties of these analogues can be tuned by altering the electron-donating or electron-withdrawing R-group on the terminal phenylalkyne. Fourteen electron-donating or electron-withdrawing R-groups were coupled to purine bases at the 8-position. […] This makes the analogues extremely useful for the quantification of analogue-containing nucleic acid products in a DNA or RNA background. […] The position (ortho, meta or para) of the R-group on the phenyl ring can also be used to tune the fluorescent properties of the analogues. The ring position of the R-group has a smaller effect on the fluorescent properties of the analogues. Greater changes in the excitation/emission wavelength, molar extinction coefficient and quantum yield can be induced by changing the type of R-group (electron-donating vs. electron-withdrawing) as compared to the position of a R-group on the phenyl ring (ortho, meta or para). The quantum yields of the unphosphorylated analogues were measured relative to quinine sulphate and anthracene standards. […] This provides additional support for the idea that the purine bases can both push and pull electrons in π-conjugated systems.

[3] = target: T7 RNA polymerase (Escherichia phage T7, UniProt P00573); test: Gel-based in vitro transcription assay with the ATP analogue as substrate; assay type: biochemical, bacteriophage T7; conditions: for Length of RNA products observed: Mg^2+ co-factor, analogue in place of ATP
Source text: (§1) In vitro assays of hepatitis C virus (HCV) and bacteriophage T7 RNA polymerases have been performed using adenosine ribonucleotide triphosphate analogues of the present invention as a substrate (in place of natural ATP). Both unincorporated and incorporated fluorescent purine ribonucleotide analogues could be visualised directly under UV trans-illumination in either agarose or polyacrylamide gels without ethidium bromide staining. The RNA products generated in the transcription assay were characterised by 6% or 20% polyacrylamide gel electrophoresis (PAGE) under denaturing (7 M urea) conditions. […] The expected full-length (˜500 bases) RNA products were not observed by denaturing 6% PAGE. Short RNA products were separated by denaturing 20% PAGE. […] The analogues are also incorporated at a slower rate than the natural substrates. Incorporation of the first and second adenosine (underlined adenosine residues in the Table below) into the RNA product occurs with two templates tested, but adjacent adenosine analogues terminate transcription before the third adenosine in each template is incorporated. Two adjacent adenosine analogues may be too large for the active site, thus RNA synthesis is terminated and the product released.
RNA products formed using the HCV 3′-UTR and T7 φ13 promoter DNA templates in gel-based transcription assays of T7 RNA polymerase and 8-phenylethynyl-adenosine triphosphate: […]

[4] = target: T1, HCV RNA polymerase (Hepatitis C virus genotype 1a, UniProt P27958); test: In vitro RNA polymerase assay with the ATP analogue as substrate; assay type: biochemical
T1 construct: results with HCV and T7 RNA polymerases using 8-phenylethynyl-adenosine triphosphate as a substrate
Source text: as §1

[5] = Mg^2+ as co-factor, depending on DNA template

T7 RNA polymerase, sequence (P00573 whole entry): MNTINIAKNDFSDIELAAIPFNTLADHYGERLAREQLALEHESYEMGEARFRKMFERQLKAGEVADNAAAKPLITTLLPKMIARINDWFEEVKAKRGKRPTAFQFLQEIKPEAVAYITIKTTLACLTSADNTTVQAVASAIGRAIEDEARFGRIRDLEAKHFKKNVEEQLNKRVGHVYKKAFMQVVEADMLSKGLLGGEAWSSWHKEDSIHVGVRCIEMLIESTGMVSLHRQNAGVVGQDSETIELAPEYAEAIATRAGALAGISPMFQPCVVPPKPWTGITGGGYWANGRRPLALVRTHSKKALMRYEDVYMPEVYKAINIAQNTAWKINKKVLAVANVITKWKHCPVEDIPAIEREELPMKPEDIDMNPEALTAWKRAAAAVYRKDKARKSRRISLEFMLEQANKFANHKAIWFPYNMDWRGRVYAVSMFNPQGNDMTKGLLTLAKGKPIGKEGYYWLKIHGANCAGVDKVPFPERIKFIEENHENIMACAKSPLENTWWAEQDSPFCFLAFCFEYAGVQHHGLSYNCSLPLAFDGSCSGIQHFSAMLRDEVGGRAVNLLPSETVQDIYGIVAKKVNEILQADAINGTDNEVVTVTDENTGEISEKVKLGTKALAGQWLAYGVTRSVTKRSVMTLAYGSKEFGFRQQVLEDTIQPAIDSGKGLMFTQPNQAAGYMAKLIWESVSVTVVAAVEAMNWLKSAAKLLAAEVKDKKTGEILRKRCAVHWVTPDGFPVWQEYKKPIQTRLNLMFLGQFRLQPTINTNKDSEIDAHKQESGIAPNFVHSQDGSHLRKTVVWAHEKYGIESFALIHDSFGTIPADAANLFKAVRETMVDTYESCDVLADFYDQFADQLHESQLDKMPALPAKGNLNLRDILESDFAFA
T1 sequence (P27958 2421-3011): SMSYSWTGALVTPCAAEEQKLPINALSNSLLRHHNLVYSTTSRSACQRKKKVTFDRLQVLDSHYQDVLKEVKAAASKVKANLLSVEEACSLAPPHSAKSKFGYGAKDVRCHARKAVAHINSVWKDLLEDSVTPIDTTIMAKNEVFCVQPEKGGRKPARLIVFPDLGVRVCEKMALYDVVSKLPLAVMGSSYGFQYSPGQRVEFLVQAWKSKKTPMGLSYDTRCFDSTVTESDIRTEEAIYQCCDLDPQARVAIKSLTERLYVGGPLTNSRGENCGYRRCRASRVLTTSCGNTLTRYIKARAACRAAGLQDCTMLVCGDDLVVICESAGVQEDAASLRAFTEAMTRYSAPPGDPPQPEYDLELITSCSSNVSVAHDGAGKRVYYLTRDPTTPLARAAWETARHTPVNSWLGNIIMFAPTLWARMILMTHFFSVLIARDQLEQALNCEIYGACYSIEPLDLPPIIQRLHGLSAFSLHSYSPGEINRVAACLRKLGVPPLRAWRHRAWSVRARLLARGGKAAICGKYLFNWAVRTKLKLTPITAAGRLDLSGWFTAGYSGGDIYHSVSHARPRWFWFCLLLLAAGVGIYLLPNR

Structure (SMILES) | Stokes shift [1] | λem [1] | λex [1] | Molar absorption coefficient [2] | Wavelength at fluorescence emission maximum [2] | Wavelength at maximum in UV absorption [2] | Quantum yield [2] | melting point | Absorption maxima shift relative to compound 7a (parent) [1] | UV-visible spectrum shift relative to compound 5a (parent) [1] | HOMO-LUMO gap relative to compound 5a [1] | Length of RNA products observed ([3]; HCV 3′-UTR DNA template) | RNA transcripts yielded with analogue as substrate [3, 5] | Length of RNA products observed ([3]; T7 φ13 promoter DNA template) | Expected full-length (˜500 bases) RNA products ([3]; denaturing 6% PAGE) | Length of small RNA products into which the analogue is incorporated ([3]; denaturing 20% PAGE) | RNA transcripts yielded with analogue as substrate [4, 5] | Expected full-length (˜500 bases) RNA products ([4]; denaturing 6% PAGE)
Nc1nc2c(nc(C#Cc3ccc(C(F)(F)F)cc3)n2[C@@H]2O[C@H](CO)[C@@H](O)[C@H]2O)c(=O)[nH]1 [Compound 5g, 8-(4′-Trifluoromethylphenylethynyl)guanosine] | 4539 cm⁻¹ | 468 nm | 386 nm |  | 458 nm | 348 nm | 0.74% | > 240 °C |  |  |  |  |  |  |  |  |  | 
Cc1ccc(C#Cc2nc3c(N)ncnc3n2[C@@H]2O[C@H](CO)[C@@H](O)[C@H]2O)cc1 [Compound 6b, 8-(4′-Methylphenylethynyl)adenosine] | 3126 cm⁻¹ | 393 nm | 350 nm | 18772 M⁻¹ cm⁻¹ | 393 nm | 323 nm | 54% | 196 to 198 °C (dec.) |  |  |  |  |  |  |  |  |  | 
Cc1ccc(C#Cc2nc3c(=O)[nH]c(N)nc3n2[C@@H]2O[C@H](CO)[C@@H](O)[C@H]2O)cc1 [Compound 5b, 8-(4′-Methylphenylethynyl)guanosine] | 3452 cm⁻¹ | 415 nm | 363 nm | 16591 M⁻¹ cm⁻¹ | 409 nm | 331 nm | 3.1% | 222 to 226 °C (dec.) |  |  |  |  |  |  |  |  |  | 
Nc1ncnc2c1nc(C#Cc1ccccc1)n2[C@@H]1O[C@H](CO)[C@@H](O)[C@H]1O [Compound 6a, 8-(Phenylethynyl)adenosine] | 3383 cm⁻¹ | 397 nm | 350 nm |  | 398 nm | 322 nm | 49% | 168 to 170 °C (dec.) |  |  |  |  |  |  |  |  |  | 
COc1ccc(C#Cc2nc3c(=O)[nH]c(N)nc3n2[C@@H]2O[C@H](CO)[C@@H](O)[C@H]2O)cc1 [Compound 5c, 8-(4-Methoxyphenylethynyl)guanosine] | 2749 cm⁻¹ | 402 nm | 362 nm | 22569 M⁻¹ cm⁻¹ | 398 nm | 330 nm | 1.2% | 220 to 224 °C (dec.) |  | red-shifted | smaller HOMO-LUMO gap |  |  |  |  |  |  | 
Nc1nc2c(nc(C#Cc3ccccc3)n2[C@@H]2O[C@H](CO)[C@@H](O)[C@H]2O)c(=O)[nH]1 [Compound 5a, 8-(Phenylethynyl)guanosine] | 4196 cm⁻¹ | 438 nm | 370 nm |  | 416 nm | 330 nm | 2.7% | 234 to 236 °C (dec.) |  |  |  |  |  |  |  |  |  | 
CCN(CC)c1ccc(C#Cc2nc3c(=O)[nH]c(N)nc3n2[C@@H]2O[C@H](CO)[C@@H](O)[C@H]2O)cc1 [Compound 5e, 8-(4-N,N-diethylaminephenylethynyl)guanosine] | 5205 cm⁻¹ | 502 nm | 398 nm |  | 409 nm | 356 nm | 2.1% |  |  | red-shifted | higher HOMO-LUMO gap |  |  |  |  |  |  | 
CSc1ccc(C#Cc2nc3c(=O)[nH]c(N)nc3n2[C@@H]2O[C@H](CO)[C@@H](O)[C@H]2O)cc1 [Compound 5d, 8-(4-Methylsulfanylphenylethynyl)guanosine] | 3264 cm⁻¹ | 426 nm | 374 nm | 19832 M⁻¹ cm⁻¹ | 425 nm | 343 nm | 4.5% | 214 to 216 °C (dec.) |  |  |  |  |  |  |  |  |  | 
Nc1ncnc2c1nc(C#Cc1ccccc1)n2[C@@H]1O[C@H](COP(=O)(O)OP(=O)(O)OP(=O)(O)O)[C@@H](O)[C@H]1O [8-phenylethynyl-adenosine triphosphate] |  |  |  |  |  |  |  |  |  |  |  | 6 mer, 9 mer | short RNA transcripts | 4 mer, 6 mer | not observed | 4-9 bases | short RNA transcripts | not observed
Nc1nc2c(nc(C#Cc3cccc4ccccc34)n2[C@@H]2O[C@H](CO)[C@@H](O)[C@H]2O)c(=O)[nH]1 [Compound 5h, 8-(Napthylethynyl)guanosine] | 4604 cm⁻¹ | 465 nm | 383 nm | 15141 M⁻¹ cm⁻¹ | 467 nm | 357 nm | 5.4% |  |  |  |  |  |  |  |  |  |  | 
CC(=O)c1ccc(C#Cc2nc3c(=O)[nH]c(N)nc3n2[C@@H]2O[C@H](CO)[C@@H](O)[C@H]2O)cc1 [Compound 5f, 8-(4′-Acetophenonephenylethynyl)guanosine] | 6392 cm⁻¹ | 532 nm | 397 nm | 19589 M⁻¹ cm⁻¹ | 509 nm | 364 nm | 0.44% |  |  |  |  |  |  |  |  |  |  | 
CCN(CC)c1ccc(C#Cc2nc3c(N)ncnc3n2[C@@H]2O[C@H](CO)[C@@H](O)[C@H]2O)cc1 [Compound 6e, 8-(4-N,N-Diethylaminephenylethynyl)adenosine] | 4747 cm⁻¹ | 506 nm | 408 nm |  | 441 nm | 365 nm | 8.4% |  | more significant differences |  |  |  |  |  |  |  |  | 

Now from value to compound, other results behind:

Stokes shift [1] | λem [1] | λex [1] | Molar absorption coefficient [2] | Wavelength at fluorescence emission maximum [2] | Wavelength at maximum in UV absorption [2] | Quantum yield [2] | melting point | Structure (SMILES) | Absorption maxima shift relative to compound 7a (parent) [1] | UV-visible spectrum shift relative to compound 5a (parent) [1] | HOMO-LUMO gap relative to compound 5a [1] | Length of RNA products observed ([3]; HCV 3′-UTR DNA template) | RNA transcripts yielded with analogue as substrate [3, 5] | Length of RNA products observed ([3]; T7 φ13 promoter DNA template) | Expected full-length (˜500 bases) RNA products ([3]; denaturing 6% PAGE) | Length of small RNA products into which the analogue is incorporated ([3]; denaturing 20% PAGE) | RNA transcripts yielded with analogue as substrate [4, 5] | Expected full-length (˜500 bases) RNA products ([4]; denaturing 6% PAGE)
1933 cm⁻¹ | 380 nm | 354 nm | 18176 M⁻¹ cm⁻¹ | 380 nm | 326 nm | 24% | 198 to 202 °C (dec.) | COc1ccc(C#Cc2nc3c(N)ncnc3n2[C@@H]2O[C@H](CO)[C@@H](O)[C@H]2O)cc1 [Compound 6c, 8-(4-methoxyphenylethynyl)-adenosine] | more significant differences |  |  |  |  |  |  |  |  | 
4897 cm⁻¹ | 440 nm | 362 nm |  | 436 nm | 333 nm | 8.8% | 196 to 198 °C (dec.) | Nc1ncnc2c1nc(C#Cc1ccc(C(F)(F)F)cc1)n2[C@@H]1O[C@H](CO)[C@@H](O)[C@H]1O [Compound 6g, 8-(4′-Trifluoromethylphenylethynyl)adenosine] |  |  |  |  |  |  |  |  |  | 
1921 cm⁻¹ | 396 nm | 368 nm | 26019 M⁻¹ cm⁻¹ |  | 338 nm | 67% | 184 to 188 °C (dec.) | CSc1ccc(C#Cc2nc3c(N)ncnc3n2[C@@H]2O[C@H](CO)[C@@H](O)[C@H]2O)cc1 [Compound 6d, 8-(4-Methylsulfanylphenylethynyl)adenosine] |  |  |  |  |  |  |  |  |  | 
